In patent EP0378320A2, “Microbial transformation product” (Merck & Co., Inc., priority 1989, dated 1990) one finds inhibition data, which are given here for one molecule.

The assay deals with mouse T lymphocytes. Briefly: T-cell proliferation assay (ionomycin plus PMA induced T-cell stimulation, tritiated thymidine uptake). Format: cell-based. The conditions noted are these: T-lymphocyte, standard at 10 ng/ml. The protocol: The principle of this assay is to measure the proliferation of mouse T lymphocytes stimulated with the combination of ionomycin plus PMA. A positive sample in this assay will inhibit T-cell proliferation, as indicated by reduced tritiated thymidine uptake.
Purified L-683,756, as prepared by HPLC above, was dissolved in absolute ethanol at 1 mg/ml.
Spleens from C57B1/6 mice were taken under sterile conditions and gently dissociated in ice-cold RPMI 1640 culture medium (GIBCO, Grand Island, N.Y.) supplemented with 10% heat-inactivated fetal calf serum (GIBCO). Cells were pelleted by centrifugation at 1500 rpm for 8 minutes. […]
Purified T lymphocytes were resuspended at 2.5 x 10⁵ cells/ml in complete culture medium composed of RPMI 1640 medium with 10% heat-inactivated fetal calf serum, […] glutamine, 1 mM sodium pyruvate, 2 x 10⁻⁵ M 2-mercaptoethanol and 50 µg/ml gentamycin. […] The proliferation of T lymphocytes was assessed by measurement of tritiated thymidine incorporation. […] Radioactivity of filter discs corresponding to individual wells was measured by standard liquid scintillation counting methods (Betacounter). Mean counts per minute of replicate wells were calculated and the results expressed as percent inhibition of tritiated thymidine uptake (proliferation) as follows: [formula]

On to `CC[C@@H]1/C=C(\C)C[C@H](C)C[C@H](OC)[C@H]2O[C@@](O)(C(=O)C(=O)N3CCCC[C@H]3C(=O)O[C@H](/C(C)=C/[C@@H]3CC[C@@H](O)[C@H](OC)C3)[C@H](C)[C@@H](O)CC1=O)[C@H](C)C[C@@H]2OC` [L-683,590], for which the inhibition at 0.01 µg/mL is 99%.

A word on the inhibition: it is the share of the control response that was lost under treatment.
